Data published in ChEMBL document CHEMBL2040724, “New synthesis and promising neuroprotective role in experimental ischemic stroke of ONO-1714” (Eur J Med Chem, 2012).
pIC50, pKi: −log10 of the molar value. Activity calls are given as the source filed them. No cut-off for these calls is given here.

How the values were obtained:
[1] = system: Peritoneal macrophage cell; assay: Inhibition of LPS/INFgamma-induced nitric oxide production in CD-1 mouse peritoneal macrophages after 48 hrs by Griess reaction; conditions: CD-1, Peritoneal macrophage cell
Mus musculus = assay: Neuroprotective activity in permanent middle cerebral artery occlusion model of CD-1 mouse brain assessed as reduction of infarct volume administered subcutaneously by using Alzet mini-osmotic pumps for 21 days before and 48 hrs after pMCAO by TTC staining; type: functional, organism-based
[2] = Cytotoxicity against CD-1 mouse peritoneal macrophages assessed as survival rate at 100 uM after 48 hrs by SRB assay; type: cell-based, Peritoneal macrophage cell; conditions: read-out: Activity
[3] = Cytotoxicity against CD-1 mouse peritoneal macrophages assessed as survival rate at 10 uM after 48 hrs by SRB assay; type: cell-based, Peritoneal macrophage cell; conditions: read-out: Activity
[4] = Cytotoxicity against CD-1 mouse peritoneal macrophages assessed as survival rate at 1 uM after 48 hrs by SRB assay; type: cell-based, Peritoneal macrophage cell; conditions: read-out: Activity
[5] = molecular target: Nitric oxide synthase, inducible (Rattus norvegicus, UniProt Q06518); assay: Inhibition of rat iNOS
[6] = Cytotoxicity against CD-1 mouse peritoneal macrophages assessed as survival rate at 0.1 uM after 48 hrs by SRB assay; type: cell-based, Peritoneal macrophage cell; conditions: read-out: Activity
[7] = molecular target: Nitric oxide synthase, inducible (Homo sapiens, UniProt P35228); assay: Inhibition of human iNOS
[8] = molecular target: T1, Nitric oxide synthase, inducible (Mus musculus, UniProt P29477); assay: Inhibition of mouse recombinant iNOS activity assessed as conversion of [14C]-L-arginine to [14C]-L-citrulline by liquid scintillation counting
T1 sequence (P29477 whole entry): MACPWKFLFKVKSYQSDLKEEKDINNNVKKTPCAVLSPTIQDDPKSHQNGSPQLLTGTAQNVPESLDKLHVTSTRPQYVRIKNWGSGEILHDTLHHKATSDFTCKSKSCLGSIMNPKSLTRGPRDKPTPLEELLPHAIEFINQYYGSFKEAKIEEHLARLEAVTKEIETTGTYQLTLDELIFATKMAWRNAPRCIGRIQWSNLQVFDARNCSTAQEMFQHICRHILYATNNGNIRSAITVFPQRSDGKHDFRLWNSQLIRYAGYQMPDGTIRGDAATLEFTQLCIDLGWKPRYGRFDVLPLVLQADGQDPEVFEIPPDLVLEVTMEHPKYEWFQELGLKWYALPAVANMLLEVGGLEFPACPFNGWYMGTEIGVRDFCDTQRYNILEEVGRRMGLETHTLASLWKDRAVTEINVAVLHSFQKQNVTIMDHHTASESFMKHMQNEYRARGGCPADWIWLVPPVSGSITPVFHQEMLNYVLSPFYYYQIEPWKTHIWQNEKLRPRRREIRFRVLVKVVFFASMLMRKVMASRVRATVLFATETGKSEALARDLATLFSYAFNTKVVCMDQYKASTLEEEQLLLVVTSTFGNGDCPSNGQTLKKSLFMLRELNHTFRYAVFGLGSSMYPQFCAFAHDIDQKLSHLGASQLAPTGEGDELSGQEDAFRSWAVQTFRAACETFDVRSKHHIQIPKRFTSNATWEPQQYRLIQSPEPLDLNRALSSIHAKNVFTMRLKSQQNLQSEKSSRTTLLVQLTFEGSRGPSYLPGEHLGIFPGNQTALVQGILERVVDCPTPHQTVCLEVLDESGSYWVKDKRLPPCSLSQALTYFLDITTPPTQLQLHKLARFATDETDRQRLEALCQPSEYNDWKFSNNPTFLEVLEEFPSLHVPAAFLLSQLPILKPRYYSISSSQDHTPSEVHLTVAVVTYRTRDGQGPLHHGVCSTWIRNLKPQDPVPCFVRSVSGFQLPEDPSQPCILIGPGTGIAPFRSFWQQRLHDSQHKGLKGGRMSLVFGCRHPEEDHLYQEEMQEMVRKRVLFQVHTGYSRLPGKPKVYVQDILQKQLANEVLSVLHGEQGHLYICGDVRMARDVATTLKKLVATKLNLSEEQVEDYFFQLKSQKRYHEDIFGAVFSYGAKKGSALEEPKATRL

Chain of Nitric oxide synthase, inducible (Homo sapiens, UniProt P35228) (P35228 whole entry): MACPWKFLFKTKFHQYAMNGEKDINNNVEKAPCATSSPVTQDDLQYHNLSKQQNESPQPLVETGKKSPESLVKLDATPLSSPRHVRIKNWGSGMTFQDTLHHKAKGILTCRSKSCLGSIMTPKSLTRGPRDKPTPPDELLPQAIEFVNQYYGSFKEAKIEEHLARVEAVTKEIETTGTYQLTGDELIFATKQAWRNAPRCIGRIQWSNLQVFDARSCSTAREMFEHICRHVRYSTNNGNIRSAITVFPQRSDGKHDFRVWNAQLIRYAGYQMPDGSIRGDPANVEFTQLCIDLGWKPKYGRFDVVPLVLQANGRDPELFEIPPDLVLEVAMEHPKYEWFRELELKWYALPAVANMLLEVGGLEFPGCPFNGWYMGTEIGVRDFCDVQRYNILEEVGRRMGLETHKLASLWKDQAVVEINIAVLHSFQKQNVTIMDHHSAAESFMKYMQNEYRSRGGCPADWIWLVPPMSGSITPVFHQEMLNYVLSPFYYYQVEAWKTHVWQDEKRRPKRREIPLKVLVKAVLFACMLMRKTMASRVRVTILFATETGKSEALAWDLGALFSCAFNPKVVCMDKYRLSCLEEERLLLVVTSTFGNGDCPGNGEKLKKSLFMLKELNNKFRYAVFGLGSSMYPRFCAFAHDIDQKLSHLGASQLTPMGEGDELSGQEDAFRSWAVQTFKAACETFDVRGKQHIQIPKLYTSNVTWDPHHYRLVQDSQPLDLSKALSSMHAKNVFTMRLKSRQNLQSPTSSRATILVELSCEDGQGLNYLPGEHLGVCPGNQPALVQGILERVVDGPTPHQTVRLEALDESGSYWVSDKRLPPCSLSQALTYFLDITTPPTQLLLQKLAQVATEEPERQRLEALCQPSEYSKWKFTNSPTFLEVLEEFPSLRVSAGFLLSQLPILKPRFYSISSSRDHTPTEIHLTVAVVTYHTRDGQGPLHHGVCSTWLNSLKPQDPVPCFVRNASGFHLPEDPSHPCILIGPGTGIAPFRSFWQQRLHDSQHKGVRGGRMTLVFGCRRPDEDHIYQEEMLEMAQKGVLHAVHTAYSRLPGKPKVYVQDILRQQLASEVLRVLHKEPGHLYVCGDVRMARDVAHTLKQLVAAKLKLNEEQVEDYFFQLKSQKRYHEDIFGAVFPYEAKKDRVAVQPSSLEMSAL
Chain of Nitric oxide synthase, inducible (Rattus norvegicus, UniProt Q06518) (Q06518 whole entry): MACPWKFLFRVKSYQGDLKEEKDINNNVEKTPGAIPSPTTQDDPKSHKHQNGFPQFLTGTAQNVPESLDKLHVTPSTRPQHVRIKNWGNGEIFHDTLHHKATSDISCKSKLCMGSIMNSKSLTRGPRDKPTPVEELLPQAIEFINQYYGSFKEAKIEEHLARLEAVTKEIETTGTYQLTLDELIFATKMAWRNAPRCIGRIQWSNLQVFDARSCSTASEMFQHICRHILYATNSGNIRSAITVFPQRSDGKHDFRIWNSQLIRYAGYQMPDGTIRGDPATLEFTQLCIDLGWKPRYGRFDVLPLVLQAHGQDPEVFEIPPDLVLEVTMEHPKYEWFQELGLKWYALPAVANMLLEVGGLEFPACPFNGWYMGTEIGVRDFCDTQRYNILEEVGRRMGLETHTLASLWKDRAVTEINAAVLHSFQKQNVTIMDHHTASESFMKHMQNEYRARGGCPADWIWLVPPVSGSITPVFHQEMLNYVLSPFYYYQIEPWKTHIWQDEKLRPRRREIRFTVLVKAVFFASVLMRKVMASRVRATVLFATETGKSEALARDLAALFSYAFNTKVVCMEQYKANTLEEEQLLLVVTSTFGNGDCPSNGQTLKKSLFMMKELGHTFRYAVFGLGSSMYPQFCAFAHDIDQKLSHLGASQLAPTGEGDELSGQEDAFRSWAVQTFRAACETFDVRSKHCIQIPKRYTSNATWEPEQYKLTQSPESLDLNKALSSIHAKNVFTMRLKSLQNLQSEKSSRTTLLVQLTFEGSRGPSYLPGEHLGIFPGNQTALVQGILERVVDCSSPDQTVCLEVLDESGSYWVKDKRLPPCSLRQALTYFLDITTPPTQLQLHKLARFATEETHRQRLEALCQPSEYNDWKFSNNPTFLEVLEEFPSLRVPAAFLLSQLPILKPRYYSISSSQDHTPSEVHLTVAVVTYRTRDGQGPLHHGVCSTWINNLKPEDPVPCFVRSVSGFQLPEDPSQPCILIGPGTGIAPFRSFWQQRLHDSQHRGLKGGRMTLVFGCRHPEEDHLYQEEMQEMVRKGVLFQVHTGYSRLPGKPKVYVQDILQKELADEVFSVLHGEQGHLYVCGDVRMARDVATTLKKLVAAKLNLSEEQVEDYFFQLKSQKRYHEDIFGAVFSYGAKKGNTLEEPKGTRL

SMILES	pIC50 [1]	Activity (Mus musculus)	viability at 48 h, 100 µM [2] [%]	viability at 48 h, 10 µM [3] [%]	viability at 48 h, 1 µM [4] [%]	pKi [5]	viability at 48 h, 0.1 µM [6] [%]	pKi [7]	pIC50 [8]
C[C@H]1CC(N)=N[C@@H]2[C@H](Cl)[C@@H]21	6.09	Active	–	–	–	–	–	–	–
C[C@H]1CC(=N)N[C@@H]2[C@H](Cl)[C@@H]21	–	–	97.2	99.1	93.6	8.74	98.4	8.74	7.96
